# In patent US20150299120A1, “Spirohydantoin compounds and their use as selective androgen receptor modulators” (NOVARTIS AG, priority 2012, published 2015):
# Read-outs that look alike come from different tables or passages of the source.
# Tests used:
# androgen receptor (AR) = molecular target: T1, androgen receptor (AR) (Homo sapiens, UniProt P10275); assay: Test 1: androgen receptor transcriptional activation (2XIDR17-luciferase) assay in transfected C2C12 cells; type: cell-based; settings: for % Biological activity (C2C12 cell) 100 nM: compound at 100 nM; for % Biological activity (C2C12 cell) 100 nM / % Biological activity (C2C12 cell) 5 μM: relative to 1 μM DHT; for % Biological activity (C2C12 cell) 5 μM: compound at 5 μM; for Emax: C2C12, C2C12 cells, percentage activity relative to 1 μM DHT, read-out: Biological activity (C2C12 cell) Emax % (converted)
# T1 construct: transfecting C2C12 cells with a plasmid containing full-length AR; expressed in transfected cells; host or cells: mouse myoblastic C2C12 cells (ATCC CRL-1772), transiently transfected with AR-FL in pcDNA 3.1(+)
# T1 sequence (P10275 1-920): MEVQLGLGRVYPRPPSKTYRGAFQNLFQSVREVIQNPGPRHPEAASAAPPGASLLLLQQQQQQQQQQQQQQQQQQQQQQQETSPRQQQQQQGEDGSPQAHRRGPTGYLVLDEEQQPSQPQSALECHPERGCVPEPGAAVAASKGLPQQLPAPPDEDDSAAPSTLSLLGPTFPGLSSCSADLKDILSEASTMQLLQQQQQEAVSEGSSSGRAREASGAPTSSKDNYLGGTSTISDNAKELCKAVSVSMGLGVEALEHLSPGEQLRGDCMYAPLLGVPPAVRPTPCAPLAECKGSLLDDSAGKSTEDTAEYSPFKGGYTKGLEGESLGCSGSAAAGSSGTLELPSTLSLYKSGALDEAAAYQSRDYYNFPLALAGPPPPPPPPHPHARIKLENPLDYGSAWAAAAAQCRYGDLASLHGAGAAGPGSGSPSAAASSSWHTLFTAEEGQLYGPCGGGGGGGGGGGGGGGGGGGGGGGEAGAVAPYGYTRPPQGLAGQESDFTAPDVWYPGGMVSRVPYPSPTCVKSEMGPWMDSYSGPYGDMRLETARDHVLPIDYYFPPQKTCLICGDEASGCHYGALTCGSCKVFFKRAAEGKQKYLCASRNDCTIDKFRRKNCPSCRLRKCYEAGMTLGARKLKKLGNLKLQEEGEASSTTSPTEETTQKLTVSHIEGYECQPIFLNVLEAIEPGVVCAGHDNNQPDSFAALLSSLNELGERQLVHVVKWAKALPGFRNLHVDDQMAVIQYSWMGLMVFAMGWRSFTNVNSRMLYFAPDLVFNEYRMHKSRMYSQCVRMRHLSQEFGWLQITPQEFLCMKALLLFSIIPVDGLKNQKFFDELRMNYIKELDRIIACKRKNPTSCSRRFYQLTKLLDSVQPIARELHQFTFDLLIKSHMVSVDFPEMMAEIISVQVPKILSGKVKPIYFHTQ
# Procedure: A suitable assay to determine the ability of a ligand to transcriptionally activate androgen receptor (AR) is carried out using mouse myoblastic C2C12 cells. The assay involves transfecting C2C12 cells with a plasmid containing full-length AR along with an AR response element linked to luciferase (2XIDR17). The luminescence read-out at the end of the assay is measured using Victor 3 and is a direct measure of the transcriptional activity. The assay has been validated using the reference compound, BMS-564929, for which EC50 values have been reported in a similar set-up.
# C2C12 cells were obtained from ATCC (Cat #CRL-1772) and maintained in DMEM modified to contain 4 mM L-glutamine, 4.5 g/L glucose, 1 mM sodium pyruvate and 1.5 g/L sodium bicarbonate and 10% FBS.
# AR-FL in pcDNA 3.1(+) and 2XIDR17 in pGL4.26 plasmids prepared using Genelute plasmid miniprep kit from Sigma Cat #PLED35 Steadyglow Luciferase assay system Promega Cat #E2550
# • C2C12 cells were seeded in a 96-well plate in DMEM (Dulbecco's Modified Eagle Medium) without phenol red and containing 10% CS-FBS (Charcoal-stripped Fetal Bovine Serum) at 8000 cells/well. • The next day, cells were transfected with an equimolar ratio of (Androgen Receptor-Full length) AR-FL and 2XIDR17-Luciferase at a total plasmid concentration of 200 ng/well using Lipofectamine 2000 following manufacturer's protocol. • For the transfection, 83 ng of AR-FL and 117 ng of 2XIDR17-Luciferase were in 12.5 μl of OptiMEM—Mix A. 0.4 μl of Lipofectamine 2000 was added to 12.5 μl of OptiMEM and incubated for 5 min at room temperature—Mix B. The two mixes A and B were mixed and incubated at room temperature for an additional fifteen minutes. An additional 50 μl of OptiMEM was added, gently mixed and this mixture was added to the cells in the 96-well plate. The above quantities are requirements per well of a 96-well plate. Master mixes were made for the entire plate, with proportional quantity of reagents being used. • 5 h after transfection, compounds were added to the wells in DMEM without phenol red and containing 10% CS-FBS, maintaining a final DMSO concentration of 0.5%. A typical dose response curve starts at 10 μM and includes a 7-point, log dilution, done in triplicates. • After overnight incubation with the compounds, 100 ul of working solution of Steadyglow reagent was added to the wells. • The plates were placed in a shaker for 15 min at the end of which the lysate containing luciferase was transferred to a white flat-bottom plate and read under a luminescence setting in Victor. • Background subtracted counts (Luminescence from DMSO control wells is considered the background) are used to calculate percentage activity, expressed relative to activity with 1 μM (Dihydrotestosterone) DHT (at least two sets of triplicates for 1 μM DHT are included per plate).
# The EC50 curves for the compounds for 8 compound concentrations were fitted by the respective function using non-linear least-squares regression in Graphpad Prism 4.0 (Graphpad Software, San Diego, Calif., USA).
# [1] = mouse myoblastic C2C12 cells transfected with full-length AR and 2XIDR17-luciferase, read-out: Biological activity (C2C12 cell) EC50
# [2] = C2C12 cells, read-out: EC50 value in test 1
SMILES,melting point,Emax (androgen receptor (AR)),EC50 (androgen receptor (AR); [1]),further results
"Cc1c(N2C(=O)N(C)C3(CCC3)C2=O)ccc(C#N)c1Cl [Example 12.0, 2-chloro-3-methyl-4-(5-methyl-6,8-dioxo-5,7-diazaspiro[3.4]octan-7-yl)benzonitrile]",133 °C,–,–,% Biological activity (C2C12 cell) 100 nM (androgen receptor (AR); C2C12 cells): 67%; % Biological activity (C2C12 cell) 5 μM (androgen receptor (AR); C2C12 cells): 70%
"Cc1c(N2C(=O)N(CC(C)C)C3(CCCC3)C2=O)ccc(C#N)c1Cl [Example 9.5, 2-chloro-4-(1-isobutyl-2,4-dioxo-1,3-diazaspiro[4.4]nonan-3-yl)-3-methylbenzonitrile]",115 °C,–,–,% Biological activity (C2C12 cell) 100 nM (androgen receptor (AR); C2C12 cells): 11%; % Biological activity (C2C12 cell) 5 μM (androgen receptor (AR); C2C12 cells): 74%
Cc1c(N2C(=O)OC3(CCCC3O)C2=O)ccc(C#N)c1Cl (centres unmarked),150 °C,–,–,–
"Cc1c(N2C(=N)C3(CCCC3)N(C)C2=O)ccc(C#N)c1Cl [Example 7.0, 2-chloro-4-(4-imino-1-methyl-2-oxo-1,3-diazaspiro[4.4]nonan-3-yl)-3-methylbenzonitrile]",199 °C,53%,103 nM,–
"Cc1c(N2C(=O)N(CCOCCF)C3(CCCC3)C2=O)ccc(C#N)c1Cl [Example 9.2, 2-chloro-4-(1-(2-(2-fluoroethoxy)ethyl)-2,4-dioxo-1,3-diazaspiro[4.4]nonan-3-yl)-3-methylbenzonitrile]",112 °C,83%,17.8 ± 6.6 nM,–
"Cc1c(N2C(=O)N(C)C3(CCC(F)C3)C2=O)ccc(C#N)c1Cl (single isomer, unassigned)",162 °C,–,–,–
"Cc1noc(C)c1CN1C(=O)N(c2ccc(C#N)c(Cl)c2C)C(=O)C12CCCC2 [Example 8.3, 2-chloro-4-(1-((3,5-dimethylisoxazol-4-yl)methyl)-2,4-dioxo-1,3-diazaspiro[4.4]nonan-3-yl)-3-methylbenzonitrile]",109 °C,–,–,% Biological activity (C2C12 cell) 100 nM (androgen receptor (AR); C2C12 cells): 3%; % Biological activity (C2C12 cell) 5 μM (androgen receptor (AR); C2C12 cells): 19%
"Cc1c(N2C(=O)N(CC3CCOC3)C3(CCCC3)C2=O)ccc(C#N)c1Cl (centres unmarked) [Example 11.0, 2-chloro-4-(2,4-dioxo-1-((tetrahydrofuran-3-yl)methyl)-1,3-diazaspiro[4.4]nonan-3-yl)-3-methylbenzonitrile]",70 °C,–,–,% Biological activity (C2C12 cell) 100 nM (androgen receptor (AR); C2C12 cells): 25%; % Biological activity (C2C12 cell) 5 μM (androgen receptor (AR); C2C12 cells): 48%
Cc1c(N2C(=O)N(C)C3(CCCC3O)C2=O)ccc(C#N)c1Cl (centres unmarked) [1.0],–,80%,–,–
"Cc1c(N2C(=O)N(CCCCC#N)C3(CCCC3)C2=O)ccc(C#N)c1Cl [Example 9.6, 2-chloro-4-(1-(4-cyanobutyl)-2,4-dioxo-1,3-diazaspiro[4.4]nonan-3-yl)-3-methylbenzonitrile]",–,90%,45 nM,–
Cc1c(N2CC3(CCCC3O)N(C)C2=O)ccc(C#N)c1Cl (centres unmarked) [2.0],–,76%,2910 nM,–
Cc1c(N2C(=O)N(C)C3(CCCC3F)C2=O)ccc(C#N)c1Cl (centres unmarked) [1.4],–,60%,–,–
"Cc1cnc(CN2C(=O)N(c3ccc(C#N)c(Cl)c3C)C(=O)C23CCCC3)o1 [Example 8.7, 2-chloro-3-methyl-4-(1-((5-methyloxazol-2-yl)methyl)-2,4-dioxo-1,3-diazaspiro[4.4]nonan-3-yl)benzonitrile]",–,112%,8.9 nM,–
Cc1c(N2C(=O)N(C)C3(CCOC3)C2=O)ccc(C#N)c1Cl (centres unmarked) [10.0],–,60%,–,–
"COC1N(c2ccc(C#N)c(Cl)c2C)C(=O)OC12CCCC2O (centres unmarked) [Example 4.1, 2-chloro-4-(6-hydroxy-4-methoxy-2-oxo-1-oxa-3-azaspiro[4.4]nonan-3-yl)-3-methylbenzonitrile]",–,40%,2590 nM,–
"Cc1c(N2C(=O)N(CCC3CCOCC3)C3(CCCC3)C2=O)ccc(C#N)c1Cl [2-chloro-4-(2,4-dioxo-1-(2-(tetrahydro-2H-pyran-4-yl)ethyl)-1,3-diazaspiro[4.4]nonan-3-yl)-3-methylbenzonitrile]",–,–,–,EC50 (androgen receptor (AR); [2]): > 30000 nM
Cc1c(N2C(=O)N(C)C3(CCCC3O)C2=O)ccc(C#N)c1Cl (centres unmarked),188 °C,–,–,–
"Cc1c(N2C(=O)N(CCN3CCOCC3)C3(CCCC3)C2=O)ccc(C#N)c1Cl [2-chloro-3-methyl-4-(1-(2-morpholinoethyl)-2,4-dioxo-1,3-diazaspiro[4.4]nonan-3-yl)benzonitrile]",–,–,–,EC50 (androgen receptor (AR); [2]): > 30000 nM
CCN1C(=O)N(c2ccc(C#N)c(Cl)c2C)C(=O)C12CCCC2O (centres unmarked) [1.3],–,79%,–,–
"Cc1c(N2C(=O)N(CCCCCC#N)C3(CCCC3)C2=O)ccc(C#N)c1Cl [Example 9.1, 2-chloro-4-(1-(5-cyanopentyl)-2,4-dioxo-1,3-diazaspiro[4.4]nonan-3-yl)-3-methylbenzonitrile]",–,108%,8.7 ± 2.1 nM,–
"Cc1c(N2C(=O)N(CCCC#N)C3(CCCC3)C2=O)ccc(C#N)c1Cl [Example 9.4, 2-chloro-4-(1-(3-cyanopropyl)-2,4-dioxo-1,3-diazaspiro[4.4]nonan-3-yl)-3-methylbenzonitrile]",–,90%,26.5 nM,–
"Cc1c(N2C(=O)N(CCF)C3(CCCC3)C2=O)ccc(C#N)c1Cl [Example 9.0, 2-chloro-4-(1-(2-fluoroethyl)-2,4-dioxo-1,3-diazaspiro[4.4]nonan-3-yl)-3-methylbenzonitrile]",–,99%,–,"EC50 (androgen receptor (AR); Biological activity (C2C12 cell) EC50 (nM), mouse myoblastic C2C12 cells transfected with full-length AR and 2XIDR17-luciferase): 45.4 nM"
"Cc1c(N2C(=O)N(C)C3(CCCC3)C2O)ccc(C#N)c1Cl (centres unmarked) [2-chloro-4-(4-hydroxy-1-methyl-2-oxo-1,3-diazaspiro[4.4]nonan-3-yl)-3-methylbenzonitrile]",–,–,–,EC50 (androgen receptor (AR); [2]): > 30000 nM
Cc1c(N2CC3(CCCC3O)OC2=O)ccc(C#N)c1Cl (centres unmarked) [2-chloro-4-(6-hydroxy-2-oxo-1-oxa-3-azaspiro[4.4]nonan-3-yl)-3-methylbenzonitrile],–,–,–,EC50 (androgen receptor (AR); [2]): > 30000 nM
"Cc1c(N2C(=O)N(CCc3ccncc3)C3(CCCC3)C2=O)ccc(C#N)c1Cl [Example 8.2, 2-chloro-4-(2,4-dioxo-1-(2-(pyridin-4-yl)ethyl)-1,3-diazaspiro[4.4]nonan-3-yl)-3-methylbenzonitrile]",–,70%,203 nM,–
"Cc1c(N2C(=O)N(Cc3ncc(CO)o3)C3(CCCC3)C2=O)ccc(C#N)c1Cl [Example 8.8, 2-chloro-4-(1-((5-(hydroxymethyl)oxazol-2-yl)methyl)-2,4-dioxo-1,3-diazaspiro[4.4]nonan-3-yl)-3-methylbenzonitrile]",–,–,–,% Biological activity (C2C12 cell) 100 nM (androgen receptor (AR); C2C12 cells): 26%; % Biological activity (C2C12 cell) 5 μM (androgen receptor (AR); C2C12 cells): 70%
